In article PMC10762035, “Molecular basis of human trace amine-associated receptor 1 activation” (Nature Communications, 2024):
Changes are numbered by the printed parent chain. Several values for one entry are separate records, joined by “and”; a condition that tells them apart may be missing. Equal values may be shown once. Read-outs that look alike come from different tables or passages of the source.

Columns and labels:
Format in all cases: cell-based
[1] = target: T1, hTA1 I290Y (Homo sapiens, UniProt Q96RJ0, I290Y); test: GloSensor cAMP accumulation assay, I290Y mutant; conditions: for cAMP accumulation response, normalized (concentration-response source data, single replicate values): hTA1 I290Y (N=3), log[Compound];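 as to cAMP accumulation response, normalized (concentration-response source data, single replicate values): normalized to the maximum response of β-PEA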
T1 construct: expressed in transfected cells; host or cells: HEK293T
T1 sequence (Q96RJ0 1-339 I290Y): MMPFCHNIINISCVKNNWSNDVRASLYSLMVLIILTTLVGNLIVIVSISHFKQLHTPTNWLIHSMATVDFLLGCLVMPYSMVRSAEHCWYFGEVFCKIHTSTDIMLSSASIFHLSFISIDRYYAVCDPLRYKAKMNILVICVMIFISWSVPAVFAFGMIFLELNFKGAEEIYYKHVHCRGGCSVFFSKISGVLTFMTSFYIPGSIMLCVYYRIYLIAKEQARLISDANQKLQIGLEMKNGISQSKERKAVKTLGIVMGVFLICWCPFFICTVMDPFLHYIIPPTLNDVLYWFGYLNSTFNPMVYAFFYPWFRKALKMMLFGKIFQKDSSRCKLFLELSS

[2] = target: T2, β2AR-Nterm-hTA1-F112^3.41W (CryoEM Construct) (Homo sapiens, UniProt Q96RJ0, F112W); test: GloSensor cAMP accumulation assay, cryoEM construct;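 also: cells transiently co-transfected with the receptor construct and GloSensor cAMP biosensor, luminescence read after 30 min compound exposure at room temperature in the dark as cAMP accumulation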;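 as to Normalized Luminescence Counts (N=2): normalized to the maximum response of β-PEA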
T2 construct: FLAG (N); 10xHis (N); TEV protease site (N); expressed in transfected cells; host or cells: HEK293T

[3] = target: T3, hTA1 W264F (Homo sapiens, UniProt Q96RJ0, W264F); test: GloSensor cAMP accumulation assay, W264F mutant;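 also: cells transiently transfected with receptor plus GloSensor, luminescence read 30 min after agonist addition at room temperature, concentration-response curves fitted by log(agonist) vs response regression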
T3 construct: expressed in transfected cells; host or cells: HEK293T
T3 sequence (Q96RJ0 1-339 W264F): T1 sequence (Q96RJ0 1-339 I290Y) with W264F, Y290I

[4] = target: T4, hTA1 F195T (Homo sapiens, UniProt Q96RJ0, F195T); test: GloSensor cAMP accumulation assay, F195T mutant;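 also: cells transiently co-expressing HA-FLAG-tagged hTA1 and the GloSensor cAMP biosensor, luminescence read 30 min after agonist addition at room temperature, concentration-response fitted by nonlinear regression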
T4 construct: expressed in transfected cells; host or cells: HEK293T
T4 sequence (Q96RJ0 1-339 F195T): T1 sequence (Q96RJ0 1-339 I290Y) with F195T, Y290I

[5] = target: T5, hTA1 T271N (Homo sapiens, UniProt Q96RJ0, T271N); test: GloSensor cAMP accumulation assay, T271N mutant
T5 construct: expressed in transfected cells; host or cells: HEK293T
T5 sequence (Q96RJ0 1-339 T271N): T1 sequence (Q96RJ0 1-339 I290Y) with T271N, Y290I

[6] = target: T6, hTA1 C96S (Homo sapiens, UniProt Q96RJ0, C96S); test: GloSensor cAMP accumulation assay, C96S mutant; conditions: log[Compound]
T6 construct: expressed in transfected cells; host or cells: HEK293T
T6 sequence (Q96RJ0 1-339 C96S): T1 sequence (Q96RJ0 1-339 I290Y) with C96S, Y290I

[7] = read-out: Span ± SEM (Emax normalized to β-PEA)
[8] = W246F mutant (so in the source) minus WT average

T2 sequence (Q96RJ0 with tags, fused parts or gaps F112W): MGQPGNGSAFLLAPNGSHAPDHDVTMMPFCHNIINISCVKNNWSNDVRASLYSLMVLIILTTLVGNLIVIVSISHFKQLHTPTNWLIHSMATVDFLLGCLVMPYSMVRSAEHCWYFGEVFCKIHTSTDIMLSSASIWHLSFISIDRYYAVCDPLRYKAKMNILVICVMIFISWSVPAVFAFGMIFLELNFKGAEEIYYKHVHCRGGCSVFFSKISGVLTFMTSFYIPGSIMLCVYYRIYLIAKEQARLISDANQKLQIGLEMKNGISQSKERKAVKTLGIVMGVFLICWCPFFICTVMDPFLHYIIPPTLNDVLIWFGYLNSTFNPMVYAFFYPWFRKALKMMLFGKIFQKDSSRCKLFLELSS

Structure (SMILES): CCC(CC1COC(N)=N1)c1ccccc1 (stereo not shown) [Ro5256390]
- EC50 ([1]; EC50, I290Y): 3.79 nM
- Emax values, Mean ([1]; I290Y, single experiments (3 replicates each), β-PEA = 100): 89.4977 and 95.7835 and 67.042
- cAMP accumulation response, normalized (concentration-response source data, single replicate values) ([1]; M = -5): 116.004 and 90.4575 and 99.9991 and 95.6306 and 94.8977 and 106.257 and 79.386 and 92.9217 and 71.4902
- cAMP accumulation response, normalized (concentration-response source data, single replicate values) ([1]; M = -5.522): 112.926 and 87.6874 and 89.8419 and 104.792 and 95.2641 and 96.3635 and 62.4664 and 47.8027 and 61.3384
- cAMP accumulation response, normalized (concentration-response source data, single replicate values) ([1]; M = -6): 83.3783 and 72.6056 and 91.3809 and 91.5998 and 83.1717 and 95.997 and 59.0825 and 62.4664 and 68.1063
- cAMP accumulation response, normalized (concentration-response source data, single replicate values) ([1]; M = -6.522): 92.9198 and 66.4498 and 97.2289 and 82.4388 and 92.3327 and 95.997 and 63.5944 and 55.6986 and 61.3384
- cAMP accumulation response, normalized (concentration-response source data, single replicate values) ([1]; M = -7): 110.156 and 60.6017 and 92.3043 and 89.4012 and 82.4388 and 95.997 and 47.8027 and 61.3384 and 55.6986
- cAMP accumulation response, normalized (concentration-response source data, single replicate values) ([1]; M = -7.522): 92.6121 and 50.1368 and 96.6133 and 79.5073 and 85.3703 and 95.2641 and 50.0587 and 56.8265 and 52.3146
- cAMP accumulation response, normalized (concentration-response source data, single replicate values) ([1]; M = -8): 93.8432 (2×) and 82.1471 and 71.4457 and 85.3703 and 69.6135 and 30.8831 (2×) and 25.2433
- cAMP accumulation response, normalized (concentration-response source data, single replicate values) ([1]; M = -8.522): 58.1394 and 51.6758 and 54.7537 and 45.0622 and 47.6273 and 45.4287 and 15.0915 and 9.4516 and 13.9635
- cAMP accumulation response, normalized (concentration-response source data, single replicate values) ([1]; M = -9): 42.442 and 23.359 and 39.3641 and 21.9767 and 28.939 and 28.2061 and 3.812 and 2.684 and 9.4516
- cAMP accumulation response, normalized (concentration-response source data, single replicate values) ([1]; M = -9.522): 12.5863 and 7.046 and 12.2785 and 10.9836 and 8.785 and 11.7164 and -2.956 and -1.828 and 0.4278
- cAMP accumulation response, normalized (concentration-response source data, single replicate values) ([1]; M = -10): 11.6629 and 9.816 and 11.9707 and -2.575 and -0.376 and 1.456 and 0.4278 and -0.7002 and -1.828
- cAMP accumulation response, normalized (concentration-response source data, single replicate values) ([1]; M = -10.522): 3.045
- EC50 ([1]; pEC50 values, Mean, I290Y, single experiments (3 replicates each)): 1.77 nM and 2.74 nM and 11.3 nM
- EC50 ([1]; pEC50 ± SEM, I290Y): 3.8 nM
- Emax [1, 7]: 84.1 ± 8.72%
- ΔpEC50 values (each mutant value - WT average), Mean ([2]; Cryo EM Construct minus WT average): 0.183 and 0.4564
- Normalized Luminescence Counts (N=2) ([2]; CryoEM Construct, log[Compound], M = -5, single replicates): 109.262 and 115.846 and 129.746 and 127.392
- EC50 ([2]; EC50, CryoEM Construct, n=2): 2.47 nM
- EC50 ([2]; pEC50 values, Mean, Cryo EM Construct, mean of each independent experiment (3 replicates)): 3.5 nM and 1.87 nM
- Emax [2, 7]: 102 ± 2.88%
- Emax values, Mean [3]: 62.0152 and 91.1137
- EC50 ([3]; EC50, W264F, n=2): 127 nM
- ΔEmax values (each mutant value - WT average) [3, 8]: -41.2891
- ΔpEC50 values (each mutant value - WT average) [3, 8]: -1.382 and -1.371
- EC50 ([3]; W246F mutant (so in the source), each line an independent experiment, 3 replicates, read-out: pEC50 values (Mean) (converted)): 129 nM and 125 nM
- Emax ([3]; read-out: Span ± SEM (Emax normalized to β-PEA), W264F, n=2): 76.6 ± 14.5%
- EC50 ([4]; EC50, F195T, n=2): 2.9 nM
- Emax values, Mean ([4]; F195T mutant, Figure 5B, β-PEA = 100, each row one independent experiment (3 replicates)): 107.711
- EC50 ([4]; pEC50 values, Mean, F195T mutant, Figure 5B, each row one independent experiment (3 replicates)): 1.63 nM and 4.03 nM
- Emax ([4]; read-out: Emax values, Mean, F195T mutant, Figure 5B, β-PEA = 100, each row one independent experiment (3 replicates)): 105%
- Emax ([4]; read-out: Span ± SEM (Emax normalized to β-PEA), F195T, n=2): 106 ± 1.33%
- EC50 ([5]; EC50, T271N, n=2): 12.6 nM
- ΔpEC50 values (each mutant value - WT average), Mean ([5]; T271N mutant minus WT average, Figure 5B): -0.2524 and -0.4929
- Emax values, Mean ([5]; T271N mutant, Figure 5B, β-PEA = 100, each row one independent experiment (3 replicates)): 121.264 and 99.7038
- EC50 ([5]; pEC50 values, Mean, T271N mutant, Figure 5B, each row one independent experiment (3 replicates)): 9.54 nM and 16.6 nM
- Emax ([5]; read-out: Span ± SEM (Emax normalized to β-PEA), T271N, n=2): 110%
- Normalized Luminescence Counts ([6]; C96S, M = -5, single replicates (N=2)): -0.5726 and -3.209 and -1.891 and -16.2542 and -4.6346 and -2.698
- Normalized Luminescence Counts ([6]; C96S, M = -5.522, single replicates (N=2)): -1.891 (2×) and -3.209 and -4.6346 and -8.508 and 10.8582
- Normalized Luminescence Counts ([6]; C96S, M = -6, single replicates (N=2)): 4.041 and -2.55 and -0.5726 and 5.048 (2×) and -10.4444
- Normalized Luminescence Counts ([6]; C96S, M = -6.522, single replicates (N=2)): 1.4045 and -2.55 and 2.723 and -0.7614 and -4.6346 and 3.112
- Normalized Luminescence Counts ([6]; C96S, M = -7, single replicates (N=2)): 2.723 and -1.891 and 1.4045 and -0.7614 (2×) and -4.6346
- Normalized Luminescence Counts ([6]; C96S, M = -7.522, single replicates (N=2)): 5.359 and -3.209 and 2.723 and -0.7614 and -10.4444 and 14.7315
- Normalized Luminescence Counts ([6]; C96S, M = -8, single replicates (N=2)): 2.064 and -0.5726 (2×) and 30.2243 and -8.508 and 12.7948
- Normalized Luminescence Counts ([6]; C96S, M = -8.522, single replicates (N=2)): 0.7455 and -1.891 and 4.7 and 14.7315 and 3.112 and 12.7948
- Normalized Luminescence Counts ([6]; C96S, M = -9, single replicates (N=2)): 0.7455 and -1.232 and -1.891 and 18.6047 and 8.922 and -4.6346
- Normalized Luminescence Counts ([6]; C96S, M = -9.522, single replicates (N=2)): 0.08646 and -3.209 and -2.55 and 3.112 and 1.175 and -0.7614
- Normalized Luminescence Counts ([6]; C96S, M = -10, single replicates (N=2)): 1.4045 and -0.5726 and 0.7455 and 3.112 and -2.698 (2×)
- Normalized Luminescence Counts ([6]; C96S, M = -10.522, single replicates (N=2)): -0.5726 and -2.55 and -1.232 and 5.048 and 6.985 and -2.698
- Normalized Luminescence Counts ([6]; C96S, M = -11, single replicates (N=2)): 0.7455 and 0.08646 and 4.7 and 32.1609 and 18.6047 and 10.8582
- Normalized Luminescence Counts ([6]; C96S, M = -11.522, single replicates (N=2)): 3.382 and 0.7455 and 1.4045 and 20.5413
- Normalized Luminescence Counts ([6]; M = -11.522, single replicates, mutant block above C178S): 0.4362 and 0.4589 and 0.8459 and 2.031 and 1.818 and 1.444
- Normalized Luminescence Counts ([6]; M = -12, single replicates, mutant block above C178S): 0.6183 and 0.1175 and -0.01903 and 3.527 and 0.8561 and 0.9629
- Normalized Luminescence Counts ([6]; M = -12.522, single replicates, mutant block above C178S): -0.1556 (2×) and -0.2011 and 1.711 and 1.818 and 0.6424
